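Growth conditions: 96-well plates. Treatment: test compound, 48 hours, 5 concentrations. Analysis: linear interpolation between bracketing concentrations; unreached endpoints set to highest concentration. The concentration for 50% growth inhibition is given as GI50. TGI is the concentration that stops growth completely.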

Consider eight molecules from PubChem BioAssay (NCI).

Among the test systems are SNB-75 CNS; A498 renal; MDA-MB-231 breast; A549 NSCLC; M14 melanoma; HCC-2998 colon; NCI-H522 lung; 786-0 renal; HCT-15 colon; COLO 205 colon.
Holding throughout (experiment): growth of human tumour cells (NCI), 48 h

As to `Cc1nn(-c2nc3ccccc3[nH]2)c2c1C(c1ccc3c(c1)OCO3)CC(=O)N2` (stereo not given), the GI50 in the assay with SNB-75 CNS is 2.69 µM; in the assay with A498 renal, 1.61 µM; with MDA-MB-231 breast, 2.18 µM; in the assay on A549 NSCLC, 2.56 µM; in the assay with M14 melanoma, 2.31 µM; with HCC-2998 colon, 3.7 µM. Also, the GI50 with NCI-H522 lung was 2.22 µM; with 786-0 renal, 3.65 µM; with HCT-15 colon it was 3.05 µM; with COLO 205 colon it was 2.11 µM. Moreover, the TGI in the assay on SNB-75 CNS is 8.09 µM; in the assay with A498 renal, 4.42 µM; in the assay on MDA-MB-231 breast, 5.22 µM; in the assay with A549 NSCLC it was 7.73 µM; in the assay with M14 melanoma, 5.98 µM; in the assay with HCC-2998 colon, above 24.3 µM. Further, the TGI was 5.41 µM in the assay on NCI-H522 lung, 21.9 µM in the assay on 786-0 renal, above 100 µM in the assay with HCT-15 colon and 4.15 µM with COLO 205 colon.

Take `CN1CCn2c(c(Sc3ccc(C(=O)NO)cc3)c3ccccc32)C1=O`: the GI50 in the assay with SNB-75 CNS is 1.27 µM; in the assay on A498 renal, 0.151 µM; in the assay on MDA-MB-231 breast it was 2.13 µM; in the assay with A549 NSCLC, 3.45 µM; in the assay on M14 melanoma, 1.77 µM; in the assay with HCC-2998 colon, 1.94 µM. For the same molecule, the GI50 in the assay with NCI-H522 lung is 1.13 µM; in the assay with 786-0 renal it was 1.89 µM; in the assay on HCT-15 colon, 2.73 µM; with COLO 205 colon, 1.69 µM. Also, the TGI was 2.99 µM in the assay on SNB-75 CNS; 1.8 µM in the assay with A498 renal; 5.09 µM with MDA-MB-231 breast; 13 µM in the assay on A549 NSCLC; 3.99 µM in the assay with M14 melanoma; 3.76 µM in the assay with HCC-2998 colon. Further, the TGI stood at 2.66 µM in the assay on NCI-H522 lung, 3.64 µM in the assay with 786-0 renal, 14.3 µM with HCT-15 colon and 3.87 µM with COLO 205 colon.

Regarding `COc1cc(/C=C/C(=O)c2c(C)n([O-])c3ccc(Cl)cc3[n+]2=O)cc(OC)c1OC`, the GI50 in the assay on SNB-75 CNS was 17.3 µM; with A498 renal it was 23.5 µM; in the assay with MDA-MB-231 breast, 14.7 µM; in the assay with A549 NSCLC it was 59.8 µM; with M14 melanoma, above 100 µM; in the assay with HCC-2998 colon, above 100 µM. For the same molecule, the GI50 with NCI-H522 lung was above 100 µM; with 786-0 renal, 33.1 µM; in the assay on HCT-15 colon it was above 100 µM; in the assay with COLO 205 colon, above 100 µM. For the same molecule, the TGI was 40.6 µM in the assay with SNB-75 CNS; above 100 µM in the assay with A498 renal; 96.6 µM in the assay on MDA-MB-231 breast; above 100 µM in the assay with A549 NSCLC; above 100 µM in the assay on M14 melanoma; above 100 µM in the assay with HCC-2998 colon. The TGI in the assay with NCI-H522 lung, in the assay on 786-0 renal, in the assay with HCT-15 colon and with COLO 205 colon was above 100 µM throughout.

Take `O=Cc1ccc(O)c2ncccc12`: the GI50 with SNB-75 CNS was 16.9 µM; with A498 renal, 25.4 µM; in the assay with MDA-MB-231 breast, 4.21 µM; with A549 NSCLC it was 28.1 µM; with M14 melanoma, 2.99 µM; with HCC-2998 colon, 11.8 µM. The GI50 with NCI-H522 lung was 25.5 µM; in the assay on 786-0 renal, 13.4 µM; with HCT-15 colon, 1.29 µM; in the assay on COLO 205 colon, 3.71 µM. Moreover, the TGI was above 82.4 µM in the assay on SNB-75 CNS; above 63.9 µM in the assay with A498 renal; above 100 µM with MDA-MB-231 breast; above 100 µM in the assay on A549 NSCLC; 26.1 µM with M14 melanoma; 41.8 µM in the assay with HCC-2998 colon. In addition, the TGI in the assay on NCI-H522 lung came out at 90.8 µM; in the assay with 786-0 renal, 73.2 µM; with HCT-15 colon, 18.3 µM; in the assay with COLO 205 colon, 17.5 µM.

As for `O=C(CN1C(=O)c2ccccc2C1=O)C(O)CN1C(=O)c2ccccc2C1=O` (stereo not given), the TGI in the assay with SNB-75 CNS was 39.8 µM; in the assay with A498 renal it was above 100 µM; in the assay with MDA-MB-231 breast, 50.5 µM; with A549 NSCLC, above 100 µM; in the assay on M14 melanoma it was above 100 µM; in the assay with HCC-2998 colon, above 100 µM. The TGI in the assay with NCI-H522 lung, in the assay on 786-0 renal, in the assay with HCT-15 colon and with COLO 205 colon was above 100 µM each time.

Turning to `COCCNC(=O)c1ccc(-c2nc3ccc4[nH]ncc4c3c3c2CCCC3)cc1`, the GI50 with SNB-75 CNS was 2.01 µM; in the assay on A498 renal, 0.174 µM; in the assay on MDA-MB-231 breast it was 2.15 µM; in the assay with A549 NSCLC, 2.13 µM; with M14 melanoma, 1.39 µM; in the assay with HCC-2998 colon, 2.98 µM. Further, the GI50 in the assay with NCI-H522 lung is 1.92 µM; with 786-0 renal, 2.12 µM; in the assay with HCT-15 colon, 2.67 µM; in the assay with COLO 205 colon it was 2.83 µM. The TGI in the assay on SNB-75 CNS was 6.24 µM; in the assay with A498 renal, 2.93 µM; in the assay with MDA-MB-231 breast, 73 µM; in the assay with A549 NSCLC, above 100 µM; with M14 melanoma it was above 100 µM; with HCC-2998 colon, above 100 µM. The TGI in the assay on NCI-H522 lung is 12.4 µM; in the assay on 786-0 renal, 16.2 µM; in the assay on HCT-15 colon it was above 100 µM; with COLO 205 colon, 15 µM.

On to `OCCNCCNc1c2ccccc2nc2oc3ccccc3c12`, for which the GI50 with SNB-75 CNS was 13.2 µM; in the assay with A498 renal, 8.27 µM; in the assay with MDA-MB-231 breast it was 10.3 µM; with A549 NSCLC, 10.3 µM; in the assay with M14 melanoma, 12 µM; in the assay with HCC-2998 colon, 4.91 µM. For the same molecule, the GI50 in the assay on NCI-H522 lung is 7.73 µM; with 786-0 renal, 7.44 µM; with HCT-15 colon, 7.57 µM; in the assay on COLO 205 colon it was 3.51 µM. Moreover, the TGI in the assay with SNB-75 CNS stood at 27.1 µM; with A498 renal, 21.9 µM; with MDA-MB-231 breast it was 37.5 µM; in the assay with A549 NSCLC, 35.7 µM; in the assay with M14 melanoma, 24.5 µM; in the assay with HCC-2998 colon it was 20.9 µM. For the same molecule, the TGI was 23.7 µM in the assay on NCI-H522 lung, 22.2 µM in the assay on 786-0 renal, 53.1 µM in the assay on HCT-15 colon and 16.4 µM in the assay on COLO 205 colon.

On to `CCCCCCCCCCCC[n+]1ccc(C(N)=O)cc1`, for which the GI50 is 2.08 µM with SNB-75 CNS; 4.85 µM in the assay on A498 renal; 2.91 µM in the assay with MDA-MB-231 breast; 10.1 µM in the assay on A549 NSCLC; 2.58 µM in the assay with M14 melanoma; 2.71 µM in the assay on HCC-2998 colon. For the same molecule, the GI50 is 2.33 µM in the assay with NCI-H522 lung, 3.33 µM in the assay with 786-0 renal, 12.7 µM with HCT-15 colon and 1.55 µM in the assay on COLO 205 colon. Moreover, the TGI in the assay on SNB-75 CNS came out at 6.61 µM; in the assay on A498 renal, 19.5 µM; in the assay on MDA-MB-231 breast, 10.9 µM; with A549 NSCLC, 26.2 µM; with M14 melanoma, 9.7 µM; in the assay with HCC-2998 colon, 10.9 µM. Also, the TGI with NCI-H522 lung amounted to 8.38 µM; with 786-0 renal it was 12.7 µM; in the assay with HCT-15 colon it was 43.6 µM; in the assay with COLO 205 colon, 2.98 µM.
